Results: US20240415918A1, “Polypeptide and its use as a CCK receptor agonist/antagonist” (Centre for Regenerative Medicine & Health, Hong Kong …, priority 2021, published 2024)
Where a SMILES comes first, the peptide text is derived from it. [ ]: non-standard residue; d: D form. Phe(3-Br) = N[C@@H](Cc1cccc(Br)c1)C(=O)O; NMeNle = CCCC[C@H](NC)C(=O)O

Legend:
[1] = molecular target: T1, CCK-B receptors (CHO-CCK) (Homo sapiens, UniProt P32239); test: Calcium flux (Fluo-8) agonist test on CHO-CCK model cells; format: cell-based; details: for EC50: CHO-CCK cells, compound alone; for Agonistic Activity (%) at 10 μM: compound at 10 μM, percentage of signal of 20 nM CCK8 alone
T1 construct: expressed in transfected cells; host or cells: CHO (CHO-CCK model cells)
T1 sequence (P32239 1-447): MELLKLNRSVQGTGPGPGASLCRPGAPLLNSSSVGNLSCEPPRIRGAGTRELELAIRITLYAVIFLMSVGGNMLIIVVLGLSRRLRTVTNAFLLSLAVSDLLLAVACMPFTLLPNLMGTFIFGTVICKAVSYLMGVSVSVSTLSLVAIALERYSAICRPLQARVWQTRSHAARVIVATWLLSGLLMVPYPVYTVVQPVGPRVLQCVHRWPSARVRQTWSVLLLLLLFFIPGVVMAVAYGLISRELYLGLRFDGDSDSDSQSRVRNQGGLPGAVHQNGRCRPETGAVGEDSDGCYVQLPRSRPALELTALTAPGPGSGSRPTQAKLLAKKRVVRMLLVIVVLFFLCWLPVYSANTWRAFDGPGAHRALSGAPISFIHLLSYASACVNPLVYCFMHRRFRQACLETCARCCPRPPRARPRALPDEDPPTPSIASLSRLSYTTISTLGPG
Outline: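 Agonist-mode Fluo-8 calcium flux read on CHO-CCK cells after dye loading 30 min at 37 °C plus 30 min at room temperature.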

[2] = molecular target: T1, CCK-B receptors (CHO-CCK); test: Calcium flux (Fluo-8) antagonist test on CHO-CCK model cells in presence of CCK8; format: cell-based
Experimental: The compound was formulated to a 10 mM mother liquor with DMSO, and then diluted into a series of 9 concentrations with a 3-fold gradient to form a 1000× stock solution. […] Prepare 1×Fluo-8 analysis buffer: mix 9 mL of HHBS, 1 mL of 10× Pluronic F127 Plus and 20 μL of Fluo-8 thoroughly for later use. • 3. Add Fluo-8 dye working solution to the cell plate, 100 μL/well. First incubate in a 37° C. incubator for 30 min, and then take it out and incubate at room temperature in the dark for 30 min. • 4. In the process of incubating cells, the compounds to be detected were prepared with HHBS. • 5. […] The agonism/antagonism EC50 of the compound can be obtained by plotting the fitting curve with the agonism/antagonism percentage as Y-axis and the concentration of the compound as X-axis.

[3] = compound together with 10 nM CCK8
[4] = compound together with 10 nM CCK8, bound in μM

| EC50 ([1]; 100% = 20 nM CCK8) [µM] | Agonistic Activity (%) at 10 μM [1] [%] | EC50 [2, 3] [µM] | EC50 [2, 4] [µM] | EC50 ([1]; bound in μM) [µM] | Structure (SMILES) |
| --- | --- | --- | --- | --- | --- |
| 2.29 | 38.37 | 1.99 |  |  | COC(=O)C[C@H](NC(=O)[C@H](CCSC)NC(=O)[C@H](N)Cc1c[nH]c2ccccc12)C(=O)N[C@@H](Cc1cccc(I)c1)C(N)=O [HT-79, D-Trp-Met-Asp(Ome)-Phe(3-I)-NH2] |
| 0.572 | 57.83 | 0.807 |  |  | COC(=O)C[C@H](NC(=O)[C@H](CCSC)NC(=O)[C@H](N)Cc1c[nH]c2ccccc12)C(=O)N[C@@H](Cc1cccc(Br)c1)C(N)=O [HT-80, D-Trp-Met-Asp(Ome)-Phe(3-Br)-NH2] |
|  | 28.73 | 9.98 |  |  | COC(=O)C[C@H](NC(=O)[C@H](CCSC)NC(=O)[C@H](N)Cc1c[nH]c2ccccc12)C(=O)N[C@@H](Cc1ccc(F)cc1)C(N)=O [HT-87, D-Trp-Met-Asp(Ome)-Phe(4-F)-NH2] |
| 3.21 | 44.86 | 3.62 |  |  | COC(=O)C[C@H](NC(=O)[C@H](CCSC)NC(=O)[C@H](N)Cc1c[nH]c2ccccc12)C(=O)N[C@@H](Cc1cc(Cl)cc(Cl)c1)C(N)=O [HT-89, D-Trp-Met-Asp(Ome)-Phe(3,5-DiCl)-NH2] |
| 9.3 | 59.76 | 5.91 |  |  | COC(=O)C[C@H](NC(=O)[C@H](CCSC)NC(=O)[C@H](N)Cc1c[nH]c2ccccc12)C(=O)N[C@@H](Cc1cc(F)cc(F)c1)C(N)=O [HT-90, D-Trp-Met-Asp(Ome)-Phe(3,5-DiF)-NH2] |
| 1.63 |  |  | > 10 |  | CCCC[C@@H](C(=O)N[C@@H](CC(=O)O)C(=O)N[C@@H](Cc1cccc(Br)c1)C(N)=O)N(C)C(=O)[C@@H](Cc1c[nH]c2ccccc12)NC(C)=O [HT-179, Ac-D-Trp-(N-Me-Nle)-Asp-Phe(3-Br)-NH2] (Ac-[dW][NMeNle]D[Phe(3-Br)]-NH2) |
| 0.447 |  | 3.56 |  |  | CSCC[C@H](NC(=O)[C@@H](Cc1ccccc1)NC(C)=O)C(=O)N[C@@H](CC(=O)O)C(=O)N[C@@H](Cc1cccc(Br)c1)C(N)=O [HT-180, Ac-D-Phe-Met-Asp-Phe(3-Br)-NH2] (Ac-[dF]MD[Phe(3-Br)]-NH2) |
| 3.9 |  |  | > 10 |  | CSCC[C@H](NC(=O)[C@@H](Cc1cc[nH]c1)NC(C)=O)C(=O)N[C@@H](CC(=O)O)C(=O)N[C@@H](Cc1cccc(Br)c1)C(N)=O [HT-181, Ac-D-His-Met-Asp-Phe(3-Br)-NH2] |
| 0.421 |  | 3.3 |  |  | CSCC[C@H](NC(=O)[C@@H](Cc1ccc(O)cc1)NC(C)=O)C(=O)N[C@@H](CC(=O)O)C(=O)N[C@@H](Cc1cccc(Br)c1)C(N)=O [HT-182, Ac-D-Tyr-Met-Asp-Phe(3-Br)-NH2] (Ac-[dY]MD[Phe(3-Br)]-NH2) |
| 4.46 |  | 9.41 |  |  | CSCC[C@H](NC(=O)[C@@H](CC(C)C)NC(C)=O)C(=O)N[C@@H](CC(=O)O)C(=O)N[C@@H](Cc1cccc(Br)c1)C(N)=O [HT-183, Ac-D-Leu-Met-Asp-Phe(3-Br)-NH2] (Ac-[dL]MD[Phe(3-Br)]-NH2) |
| 4.32 |  | 4.41 |  |  | CC(=O)N[C@H](Cc1c[nH]c2ccccc12)C(=O)N[C@@H](CCC(N)=O)C(=O)N[C@@H](CC(=O)O)C(=O)N[C@@H](Cc1cccc(Br)c1)C(N)=O [HT-184, Ac-D-Trp-Glu-Asp-Phe(3-Br)-NH2] |
| 3.82 |  | 12 |  |  | CC(=O)N[C@H](Cc1c[nH]c2ccccc12)C(=O)N[C@@H](CCC(N)=O)C(=O)N[C@@H](CC(=O)O)C(=O)N[C@@H](Cc1cccc(Br)c1)C(N)=O [HT-185, Ac-D-Trp-Gln-Asp-Phe(3-Br)-NH2] |
| 1.34 |  | 7.71 |  |  | CSCC[C@H](NC(=O)[C@@H](Cc1c[nH]c2ccccc12)NC(C)=O)C(=O)N[C@@H](CCC(=O)O)C(=O)N[C@@H](Cc1cccc(Br)c1)C(N)=O [HT-186, Ac-D-Trp-Met-Glu-Phe(3-Br)-NH2] (Ac-[dW]ME[Phe(3-Br)]-NH2) |
|  |  |  | > 10 | > 10 | CSCC[C@H](NC(=O)[C@@H](Cc1c[nH]c2ccccc12)NC(C)=O)C(=O)N[C@@H](CC(N)=O)C(=O)N[C@@H](Cc1cccc(Br)c1)C(N)=O [HT-187, Ac-D-Trp-Met-Asn-Phe(3-Br)-NH2] (Ac-[dW]MN[Phe(3-Br)]-NH2) |
